The melting point is the temperature, or range, at which the solid turns liquid.

The nature of data set [1]: Equilibrium swelling, gel fraction and Mc (Flory-Rehner) of PEG-OND hydrogels. It counts as physicochemical. The note with it: for Mc (apparent molecular weight between elastic crosslinks): calculated with the Flory-Rehner equation from swelling results; for Gel Fraction: mass of dry residue post-swelling/input mass of OND and 4-PEG-SH; for Equilibrium Swelling Ratio: mass post-swelling/mass pre-swelling, deionized water, 4° C., 24 hours, n = 3 gels. As for the experimental part:
The swelling of the PEG-OND hydrogels in deionized water was measured at 4° C. to prevent significant fragmentation during the experiment. […] An independent experiment measuring soluble fraction thiol content yielded results complementing those obtained gravimetrically (Table S3, and related discussion below). With the knowledge that small molecules can readily permeate swollen PEG-OND hydrogels (see below), detecting and modifying residual thiols in gels prepared from divalent linkers 7a and 8 by swelling in the presence of a fluorogenic OND derivative was attempted (FIG. 15, and related discussion below).
200 μL gels were prepared in pH 7.4 100 mM phosphate buffered saline containing 7% DMSO with 3.5 wt % 4-PEG-SH and the corresponding bis-, tris-, and tetra-ONDs to provide a 1:1 thiol to electrophile ratio, and allowed to cure for 20 minutes at room temperature. The mass of the gels after curing was recorded (Meq) before suspending in 5.5 mL of water. The hydrogels were stored at 4° C. during swelling to prevent significant degradation of the network during the experiment. The increase in mass of the gels was monitored periodically by decanting and blotting the gel gently with a kimwipe to remove excess water before weighing. After 24 hours swelling, when swelling had stabilized, the mass of the gel was recorded (Meq). The equilibrium mass swelling ratio was then determined using the following relationship:
After weighing equilibrium-swelled gels to determine equilibrium mass swelling ratio, the gels were freeze-dried and the residual mass was weighed (Mres). It is expected that buffer salts present in the sample when it was formed were removed by the multiple changes of swelling solvent (pure water). The mass of the remaining residue was compared to the input mass (Min) of 4-PEG-SH macromer and OND-based linker. The ratio of the residual mass and the input mass provides the fraction of material by mass incorporated into the hydrogel network (gel fraction), as shown in the following equation: […]
The apparent molecular weight between elastically-productive crosslinks (Mc) was determined from equilibrium swelling data, collected as described in section VII.1 and applying a modified form of the Flory-Rehner equation for networks formed under dilute conditions:
[formula] where Mn is the number average molecular weight for the polymeric macromer (10,000 g/mol), v is the specific volume of the polymer ([…] for PEG) V1 is the molar volume of solvent used for swelling ([…] for water), χ is the polymer-interaction parameter (0.43 for PEG-H2O and assumed constant for the described experiments). V2, and V2, are the volume fraction of polymer in the equilibrium swollen gel and the relaxed gel after curing, respectively, and are calculated as follows:
[formula] where qw is the weight swelling ratio after equilibrium swelling, qF is the weight swelling ratio after curing, ρp is the density of the polymer (1.12 g/cm^3 for PEG), ρwater=ρcure solvent is the density of swelling solvent and solvent during gel formation (1.00 g/cm^3 for water). The weight swelling ratios qw and qF are determined from data gathered in equilibrium swelling experiments using the following relationships:
[formula] where ms is the mass of the gel after equilibrium swelling, mc is the mass of the gel after curing, and md is the mass of the dried gel, or input mass of polymer and crosslinkers.
Using the formulae above, masses of hydrogel samples recorded after equilibrium swelling, curing, and drying were applied to estimate the apparent molecular weight between crosslinks, which are summarized in Table 1 of the main text. The experimentally observed Mc values for gels formed using divalent OND linkers was lower than theoretical ideal value Mc,ideal. This can be explained by the fact that the Mc,ideal values calculated for these gels (entries 1-5 of Table S1) are greater than the entanglement molecular weight for polyethylene glycol (˜4,400 g/mol). […]

Data set [2] can be described thus: Calculation of hydrogel mesh size from equilibrium swelling data. It counts as physicochemical. The note with it: for Calculated mesh size: equilibrium-swollen gels. As for the experimental part:
Using the calculated molecular weight between crosslinks, Mc, and the method previously described by Canal and Peppas, the hydrogel mesh size was calculated. First, the root-mean-square end-to-end distance of the polymer chains in the network, (r0^2)^1/2, was calculated as follows: (r0^2)^1/2=lCn^1/2n^1/2 (Equation S10) where l is the average bond length in the polymer (0.146 nm for PEG) and Cn is the characteristic ratio of the polymer (4.0 for PEG). The average number of bonds between crosslinks, n is calculated using the following equation:
[formula] where Mc is the average molecular weight between crosslinks, calculated as described in the previous section, and Mr is the molecular weight of the repeating unit for the PEG macromer (44 g/mol). Finally, the mesh size, ξ, is calculated using the following relationship: ξ=v2,s^−1/3(r0^2)^1/2 (Equation S12) where v2, is the partial volume of polymer in the equilibrium swollen hydrogel, and is calculated using the experimentally determined equilibrium weight swelling ratios.

Data set [3] is described as follows: Release of entrained cargo from PEG-OND hydrogels. Type of data set: physicochemical. The note with it: pH 7.4 PBS, 37° C.; first-order fit. As for the experimental part:
Finally, the diffusion of entrained, rather than covalently anchored, cargos of different sizes out of OND hydrogels of differing stabilities was measured. This was done with a small molecule (carboxyfluorescein), a globular protein (fluorescein-labeled bovine serum albumin, BSA), and a 30-nm protein nanoparticle (fluorescein-labeled bacteriophage Qb virus-like particle). The first and last species have no available thiol groups; the second was reacted with N-ethylmaleimide before gelation to cap cysteine-34 and avoid tethering of the protein cargo to the hydrogel network. Hydrogels derived from 4-PEG-SH and 7a, 7b, or 8 were formed in the presence of each cargo; the speed of this reaction made it highly unlikely that OND connectors were addressed by protein amine groups under these conditions.
Three sets of three 60 μL gels were prepared using linkers 7a, 7b, and 8, respectively. The first set contained 1 mM small molecule probe 5/6-carboxyfluorescein, while the second and third sets contained FITC labeled BSA and Qβ virus-like particle, respectively. The gels were allowed to set for 30 minutes at room temperature before dilution with 3 mL of pH 7.4 100 mM phosphate buffered saline. The samples were incubated at 37° C. and the increase in absorbance of the supernatant at 497 nm was monitored. The fraction of released dye was plotted against incubation time. Least-squares kinetic fitting to a first-order rate law was performed for release profiles obtained for carboxyfluorescein cargo, and for the release of BSA from non-degradable PEG-EONB (8) hydrogel (Solver plug-in, Microsoft Excel).

A short description of data set [4]: Degradation of neat PEG-OND hydrogels (inversion test, time-lapse photography). The note with it: neat gel; for Time gel is stable / collapses (inversion test): no swelling buffer. Type of data set: physicochemical. As for the experimental part:
Degradation rates of the PEG-OND hydrogels in the absence of swelling buffer varied with temperature and with the identity of OND used to form the gel. […] In comparison, gels formed using 7b were stable for more than 60 hours at 37° C., and approximately 13 hours at 50° C.
Three 500 μL 3.5 wt % hydrogels were formed with bis-ONDs 7a and 7b, and bis-EONB 8, respectively, in 2 mL vials with caps. The sealed vials were incubated in an oil bath maintained at 50° C. The samples were periodically removed from heat and the vials were inverted to determine if the gel was still intact, or whether the sample was a free-flowing liquid, as described in the main text. The gel formed between 4-PEG-SH and bis-EONB 8 in FIG. 9 was removed from heat after 5 days, and stored at room temperature in a sealed vial. The hydrogel is still intact at the time of writing (5 days at 50° C. followed by >1 year at room temperature). The inversion test was routinely used in all stability experiments to verify hydrogel integrity during incubation.
In order to observe reverse gelation upon prolonged heating of neat hydrogels, time-lapse photography was carried out. Briefly, 600 μL hydrogels comprised of 3.5 wt % 4-PEG-SH+bis-OND/EONB (7a, 7b, and 8, respectively) in pH 7.4 100 mM potassium phosphate buffer containing 7% DMSO (v/v) were formed in glass culture tubes and allowed to set for 15 minutes. A glass bead (˜160 mg, stained with blue Sharpie-brand marker to improve visibility) was placed carefully on top of each gel, and a drop of silicon oil was added to prevent evaporation at the surface of the gels. The tubes were sealed with lab parafilm and incubated in a 50° C. oil bath. Photos were collected every 2 minutes for ˜22 hours using Chronolapse software (v.1.0.4) and a Creative Labs webcam. Photographs were compiled in chronological order using iMovie software, with each photo occupying one 0.1 s frame. The resulting video is available as S1 Video, mentioned above.

In the case of `CCOC(=O)C1=C(C(F)(F)F)C2C=CC1(CNC(=O)CCCC(=O)NCC13C=CC(O1)C(C(=O)OC)=C3C(=O)OC)O2` (centres unmarked) [Linker 10, Dimethyl 1-((5-(((2-(ethoxycarbonyl)-3-(trifluoromethyl)-7-oxabicyclo[2.2.1]hepta-2,5-dien-1-yl)methyl)amino)-5-oxopentanamido)methyl)-7-oxabicyclo[2.2.1]hepta-2,5-diene-2,3-dicarboxylate], the melting point lay in the range of 93 to 97 °C. In data set [1], the “Mc (apparent molecular weight between elastic crosslinks)” value was 4112 ± 94 g/mol, the “Gel Fraction” value is reported as 0.98 ± 0.04 and the “Equilibrium Swelling Ratio” value is 1.87 ± 0.12. Also, in data set [2], the Calculated mesh size is 15.1 ± 1.3 nm.
For “Bovine serum albumin: globular protein cargo, fluorescein-labeled bovine serum albumin”, in data set [3], the “kdiffusion of entrained cargo out of PEG-OND hydrogels” value is 0.05 ± 0.01 h⁻¹.
The same measure, in the same setting: the value for “5/6-carboxyfluorescein [reference compound]” was 0.66 ± 0.03 h⁻¹.
Turning to `CCOC(=O)C1=C(C(F)(F)F)C2C=CC1(CNC(=O)CCCC(=O)NCC13C=CC(O1)C(C(F)(F)F)=C3C(=O)OCC)O2` [Linker 7b, Diethyl 1,1′-((glutaroylbis(azanediyl))bis(methylene))bis(3-(trifluoromethyl)-7-oxabicyclo[2.2.1]hepta-2,5-diene-2-carboxylate)], the melting point lay in the range of 166 to 169 °C. For the same molecule, in data set [4] (50° C.), the “Gel integrity on extended heating (inversion test)” value is “collapsed” and the “Time gel is stable / collapses (inversion test)” value is listed as “approximately 13 hours”. Further, the “Gel stability by time-lapse photography, gel supporting a glass bead” value in data set [4] (heating (50° C.)) was “more stable than those made with 7a”. The “Time gel is stable / collapses (inversion test)” value in data set [4] (37° C.) is “more than 60 hours”. Besides, in data set [1], the “Mc (apparent molecular weight between elastic crosslinks)” value is on record as 3698 ± 16 g/mol, the “Gel Fraction” value worked out at 0.96 ± 0.02 and the “Equilibrium Swelling Ratio” value worked out at 1.40 ± 0.02. Also, the Average mesh size in data set [2] (average for equilibrium swelled hydrogels from linkers 7a, 7b and 8) is 14.0±1.0 nm. Also, in data set [2], the Calculated mesh size was 13.1 ± 0.1 nm.

The values above are taken from US10517952B2, “Nucleophile-triggered degradable materials and methods of making and using the same” (GEORGIA TECH RESEARCH CORPORATION, priority 2014, dated 2019).
